Data: the supplement of paper PMC7017272
± gives the standard deviation of the averaged measurements.

Legend:
Details in all cases: treatment time: 3 days
[1] = tested on: UT-SCC-24A; assay: drug sensitivity score (DSS); higher = more sensitive
Protocol: (§1)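 HNSCC cell lines (500 cells/well, 384-well) were cultured on plastic, on top of (2D) or embedded (3D) in Matrigel or human leiomyoma matrix Myogel (500 ug/mL; Myogel 3D mixed with rat collagen I). Cells were treated for 3 days with 5 ten-fold concentrations of each drug, and viability was read by CellTiter-Glo. Suffixes _1/_2/_3 on drug names are replicates.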

[2] = tested on: UT-SCC-106A; assay: maximal % inhibition of viability relative to DMSO; higher = stronger effect
Summary of the method: (§2)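 HPV-negative HNSCC cell lines were seeded at 500 cells/well in 384-well plates on plastic, on Matrigel- or Myogel-coated wells (500 µg/mL), or embedded in Matrigel or Myogel plus rat collagen I. Compounds were given at five 10-fold concentrations for 3 days, and viability was read by CellTiter-Glo 2.0 luminescence. Signals were normalised to vehicle (0.1% DMSO) and cell-killing control wells. Percent-inhibition dose–response curves were fitted in the FIMM pipeline to derive IC50, maximal inhibition and drug sensitivity score.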

[3] = tested on: UT-SCC-44; assay: as above
Summary of the method: as §2

[4] = tested on: UT-SCC-73; assay: as above
Summary of the method: as §2

[5] = tested on: UT-SCC-24A; assay: maximal % inhibition of viability relative to DMSO; higher = stronger effect
Protocol: as §1, with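 “CellTiter-Glo. Viability was normalised to DMSO (0% inhibition) and 100 uM benzethonium chloride (100% inhibition) controls and fitted with the FIMM DSRT pipeline to give IC50 (nM), maximal % inhibition and the drug sensitivity score (DSS).” for “CellTiter-Glo.”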

[6] = tested on: UT-SCC-106A; assay: drug sensitivity score (DSS); higher = more sensitive; extreme values may be limits of the assay
Summary of the method: as §2

[7] = tested on: UT-SCC-14; assay: as above
Summary of the method: as §2

[8] = tested on: UT-SCC-24B; assay: as above
Summary of the method: as §2

[9] = tested on: UT-SCC-28; assay: as above
Summary of the method: as §2

[10] = tested on: UT-SCC-40; assay: as above
Summary of the method: as §2

[11] = tested on: UT-SCC-42A; assay: as above
Summary of the method: as §2

[12] = tested on: UT-SCC-42B; assay: as above
Summary of the method: as §2

[13] = tested on: UT-SCC-44; assay: as above
Summary of the method: as §2

[14] = tested on: UT-SCC-73; assay: as above
Summary of the method: as §2

[15] = tested on: UT-SCC-81; assay: as above
Summary of the method: as §2

[16] = tested on: UT-SCC-8; assay: as above
Summary of the method: as §2

[17] = culture condition: embedded in Matrigel
[18] = culture condition: embedded in Myogel + collagen I
[19] = culture condition: on top of Matrigel
[20] = culture condition: on top of Myogel
[21] = culture condition: plastic 2D (no matrix)

Compound: CN(C)C/C=C/C(=O)Nc1cc2c(Nc3ccc(F)c(Cl)c3)ncnc2cc1O[C@H]1CCOC1 [Afatinib]
- drug sensitivity score [1, 17]: 20.6 ± 3.3 DSS
- drug sensitivity score [1, 18]: 8.9 ± 5.3 DSS
- drug sensitivity score [1, 19]: 16.6 ± 2.1 DSS
- drug sensitivity score [1, 20]: 2.93 ± 2.1 DSS
- drug sensitivity score [1, 21]: 15.6 ± 3.1 DSS
- maximal % inhibition of viability [2, 17]: 43.3 ± 3.5%
- maximal % inhibition of viability [2, 18]: 7.93 ± 2.1%
- maximal % inhibition of viability [2, 19]: 56.6 ± 1.3%
- maximal % inhibition of viability [2, 20]: 8.37 ± 4.6%
- maximal % inhibition of viability [2, 21]: 60.4 ± 4.3%
- maximal % inhibition of viability [3, 17]: 7.03 ± 6.5%
- maximal % inhibition of viability [3, 18]: 1 ± 1.7%
- maximal % inhibition of viability [3, 19]: 9.97 ± 9.3%
- maximal % inhibition of viability [3, 20]: 9.63 ± 7.3%
- maximal % inhibition of viability [3, 21]: 4.6 ± 5.6%
- maximal % inhibition of viability [4, 17]: 20.2 ± 7.8%
- maximal % inhibition of viability [4, 18]: 25.6 ± 22%
- maximal % inhibition of viability [4, 19]: 17.1 ± 3.4%
- maximal % inhibition of viability [4, 20]: 11.5 ± 7.3%
- maximal % inhibition of viability [4, 21]: 16.7 ± 4.8%
- maximal % inhibition of viability [5, 17]: 79.9 ± 1.1%
- maximal % inhibition of viability [5, 18]: 38.8 ± 2.3%
- maximal % inhibition of viability [5, 19]: 68.23 ± 0.59%
- maximal % inhibition of viability [5, 20]: 20.3 ± 3.7%
- maximal % inhibition of viability [5, 21]: 67.1 ± 4%
- drug sensitivity score [6, 17]: 10.9 ± 1.4 DSS
- drug sensitivity score [6, 18]: 0 DSS
- drug sensitivity score [6, 19]: 13.7 ± 2.2 DSS
- drug sensitivity score [6, 20]: 0.133 ± 0.23 DSS
- drug sensitivity score [6, 21]: 13.7 ± 1.7 DSS
- drug sensitivity score [7, 17]: 13.8 ± 3 DSS
- drug sensitivity score [7, 18]: 9.3 ± 6.4 DSS
- drug sensitivity score [7, 19]: 12.5 ± 1.4 DSS
- drug sensitivity score [7, 20]: 7.33 ± 3.8 DSS
- drug sensitivity score [7, 21]: 12.1 ± 4.1 DSS
- drug sensitivity score [8, 17]: 11.4 ± 0.72 DSS
- drug sensitivity score [8, 18]: 4.57 ± 0.58 DSS
- drug sensitivity score [8, 19]: 10.9 ± 0.96 DSS
- drug sensitivity score [8, 20]: 2.3 ± 0.7 DSS
- drug sensitivity score [8, 21]: 16.1 ± 0.56 DSS
- drug sensitivity score [9, 17]: 0 DSS
- drug sensitivity score [9, 18]: 0 DSS
- drug sensitivity score [9, 19]: 0.233 ± 0.32 DSS
- drug sensitivity score [9, 21]: 0 DSS
- drug sensitivity score [10, 17]: 16 ± 1.1 DSS
- drug sensitivity score [10, 18]: 2.93 ± 3.1 DSS
- drug sensitivity score [10, 19]: 14.5 ± 1.1 DSS
- drug sensitivity score [10, 20]: 3.37 ± 1.5 DSS
- drug sensitivity score [10, 21]: 10.2 ± 1.3 DSS
- drug sensitivity score [11, 17]: 9.73 ± 3.1 DSS
- drug sensitivity score [11, 18]: 0.767 ± 1.3 DSS
- drug sensitivity score [11, 19]: 12.7 ± 1.4 DSS
- drug sensitivity score [11, 20]: 4.33 ± 1.3 DSS
- drug sensitivity score [11, 21]: 10.3 ± 2.3 DSS
- drug sensitivity score [12, 17]: 15.7 ± 1.7 DSS
- drug sensitivity score [12, 19]: 11.6 ± 1.6 DSS
- drug sensitivity score [12, 20]: 0 DSS
- drug sensitivity score [12, 21]: 6.6 ± 0.72 DSS
- drug sensitivity score [13, 17]: 0.233 ± 0.4 DSS
- drug sensitivity score [13, 18]: 0 DSS
- drug sensitivity score [13, 19]: 0 DSS
- drug sensitivity score [13, 20]: 0 DSS
- drug sensitivity score [13, 21]: 0 DSS
- drug sensitivity score [14, 17]: 2.43 ± 1.8 DSS
- drug sensitivity score [14, 18]: 3.1 ± 5.4 DSS
- drug sensitivity score [14, 19]: 0 DSS
- drug sensitivity score [14, 20]: 0.433 ± 0.75 DSS
- drug sensitivity score [14, 21]: 1.47 ± 1.2 DSS
- drug sensitivity score [15, 17]: 23 ± 2.7 DSS
- drug sensitivity score [15, 18]: 6.47 ± 11 DSS
- drug sensitivity score [15, 19]: 18.5 ± 2.3 DSS
- drug sensitivity score [15, 20]: 1.6 ± 0.66 DSS
- drug sensitivity score [15, 21]: 12.5 ± 1.2 DSS
- drug sensitivity score [16, 17]: 19.8 ± 0.42 DSS
- drug sensitivity score [16, 18]: 0.333 ± 0.58 DSS
- drug sensitivity score [16, 19]: 19 ± 0.44 DSS
- drug sensitivity score [16, 20]: 8.37 ± 4.4 DSS
- drug sensitivity score [16, 21]: 18 ± 1.5 DSS
